Reference: ChEMBL document CHEMBL1157860, “CoMFA and CoMSIA studies on HIV-1 attachment inhibitors” (Eur J Med Chem, 2010)

Test: Inhibition of HIV1 gp120 binding to CD4 in human HeLa cells by cell fusion assay
Assay type: cell-based, Human immunodeficiency virus 1
Compound C=CCn1cc(C(=O)C(=O)N2CCN(C(=O)c3ccccc3)CC2)c2ccccc21 has an EC50 of 6760 nM and a pEC50 of 5.17. O=C(C(=O)N1CCN(C(=O)c2ccccc2)CC1)c1c[nH]c2cccc(F)c12 gave an EC50 of 2.59 nM and a pEC50 of 8.59. For O=C(C(=O)N1CCN(C(=O)c2ccccc2)CC1)c1c[nH]c2ccccc12, the EC50 was 153 nM and the pEC50 was 6.82. In the case of CCOc1cccc2c(C(=O)C(=O)N3CCN(C(=O)c4ccccc4)CC3)c[nH]c12, the EC50 is reported as 0.5 nM and the pEC50 is reported as 9.3. For N#Cc1ccc2[nH]cc(C(=O)C(=O)N3CCN(C(=O)c4ccccc4)CC3)c2c1, the EC50 was 121000 nM and the pEC50 was 3.92. Work on COc1ccc(Cl)c2[nH]cc(C(=O)C(=O)N3CCN(C(=O)c4ccccc4)CC3)c12 yielded an EC50 of 0.07 nM and a pEC50 of 10.15. O=C(C(=O)N1CCN(C(=O)c2ccccc2)CC1)c1c[nH]c2cccc(Br)c12 showed an EC50 of 4.5 nM and a pEC50 of 8.35. Work on O=C(C(=O)N1CCN(C(=O)c2ccccc2)CC1)c1c[nH]c2cccc([N+](=O)[O-])c12 yielded an EC50 of 150 nM and a pEC50 of 6.82. Work on CC(=O)Oc1ccc2[nH]cc(C(=O)C(=O)N3CCN(C(=O)c4ccccc4)CC3)c2c1 yielded an EC50 of 952 nM and a pEC50 of 6.02. Work on O=C(C(=O)N1CCN(C(=O)c2ccccc2)CC1)c1c[nH]c2cc(Cl)ccc12 yielded an EC50 of 208 nM and a pEC50 of 6.68. Compound COc1ccc2c(C(=O)C(=O)N3CCN(C(=O)c4ccccc4)CC3)c[nH]c2c1 has an EC50 of 329 nM and a pEC50 of 6.48. CC(=O)Oc1cccc2[nH]cc(C(=O)C(=O)N3CCN(C(=O)c4ccccc4)CC3)c12 gave an EC50 of 24900 nM and a pEC50 of 4.6. For O=C(C(=O)N1CCN(C(=O)c2ccccc2)CC1)c1c[nH]c2c(F)c(F)c(F)c(F)c12, the EC50 was 1.7 nM and the pEC50 was 8.77. With CCn1cc(C(=O)C(=O)N2CCN(C(=O)c3ccccc3)CC2)c2ccccc21 the EC50 was 1450 nM and the pEC50 was 5.84. With O=C(C(=O)N1CCN(C(=O)c2ccccc2)CC1)c1cn(Cc2ccccc2)c2ccccc12 the EC50 was 13800 nM and the pEC50 was 4.86. In the case of CCCCn1cc(C(=O)C(=O)N2CCN(C(=O)c3ccccc3)CC2)c2ccccc21, the EC50 is reported as 2650 nM and the pEC50 is reported as 5.58. COc1ccc2[nH]cc(C(=O)C(=O)N3CCN(C(=O)c4ccccc4)CC3)c2c1 gave an EC50 of 21100 nM and a pEC50 of 4.68. Compound O=C(C(=O)N1CCN(C(=O)c2ccccc2)CC1)c1c[nH]c2ccc([N+](=O)[O-])cc12 has an EC50 of 3800 nM and a pEC50 of 5.42. With CCOc1cccc2[nH]cc(C(=O)C(=O)N3CCN(C(=O)c4ccccc4)CC3)c12 the EC50 was 0.45 nM and the pEC50 was 9.35. With O=C(C(=O)N1CCN(C(=O)c2ccccc2)CC1)c1c[nH]c2c(Br)ccc(OC(F)(F)F)c12 the EC50 was 42.8 nM and the pEC50 was 7.37. With O=C(C(=O)N1CCN(C(=O)c2ccccc2)CC1)c1c[nH]c2ccc(F)cc12 the EC50 was 838 nM and the pEC50 was 6.08. With O=C(C(=O)N1CCN(C(=O)c2ccccc2)CC1)c1c[nH]c2ccc(Cl)cc12 the EC50 was 395 nM and the pEC50 was 6.4. Work on O=C(C(=O)N1CCN(C(=O)c2ccccc2)CC1)c1c[nH]c2ccc(Br)cc12 yielded an EC50 of 1090 nM and a pEC50 of 5.96. O=C(C(=O)N1CCN(C(=O)c2ccccc2)CC1)c1c[nH]c2c(Br)ccc(F)c12 showed an EC50 of 0.13 nM and a pEC50 of 9.89. Cc1ccc2[nH]cc(C(=O)C(=O)N3CCN(C(=O)c4ccccc4)CC3)c2c1 showed an EC50 of 1550 nM and a pEC50 of 5.81. With O=C(C(=O)N1CCN(C(=O)c2ccccc2)CC1)c1c[nH]c2cc(F)c(Br)c(F)c12 the EC50 was 23.1 nM and the pEC50 was 7.64. With O=C(C(=O)N1CCN(C(=O)c2ccccc2)CC1)c1c[nH]c2c(F)ccc(F)c12 the EC50 was 0.35 nM and the pEC50 was 9.46. With CCc1cccc2c(C(=O)C(=O)N3CCN(C(=O)c4ccccc4)CC3)c[nH]c12 the EC50 was 24.2 nM and the pEC50 was 7.62. Compound N#Cc1cccc2c(C(=O)C(=O)N3CCN(C(=O)c4ccccc4)CC3)c[nH]c12 has an EC50 of 4.9 nM and a pEC50 of 8.31. Compound CCCCOc1cccc2c(C(=O)C(=O)N3CCN(C(=O)c4ccccc4)CC3)c[nH]c12 has an EC50 of 0.14 nM and a pEC50 of 9.85. N#Cc1ccc(F)c2c(C(=O)C(=O)N3CCN(C(=O)c4ccccc4)CC3)c[nH]c12 showed an EC50 of 1.9 nM and a pEC50 of 8.72. O=C(C(=O)N1CCN(C(=O)c2ccccc2)CC1)c1c[nH]c2cc(F)cc(F)c12 showed an EC50 of 0.42 nM and a pEC50 of 9.38. O=C(C(=O)N1CCN(C(=O)c2ccccc2)CC1)c1c[nH]c2c(Br)cccc12 showed an EC50 of 17.4 nM and a pEC50 of 7.76. With Cc1cccc2c(C(=O)C(=O)N3CCN(C(=O)c4ccccc4)CC3)c[nH]c12 the EC50 was 89.5 nM and the pEC50 was 7.05. O=C(C(=O)N1CCN(C(=O)c2ccccc2)CC1)c1c[nH]c2cccc(O)c12 showed an EC50 of 20100 nM and a pEC50 of 4.7. COc1ccc(Br)c2[nH]cc(C(=O)C(=O)N3CCN(C(=O)c4ccccc4)CC3)c12 gave an EC50 of 0.13 nM and a pEC50 of 9.89. With Cc1ccc(F)c2c(C(=O)C(=O)N3CCN(C(=O)c4ccccc4)CC3)c[nH]c12 the EC50 was 0.56 nM and the pEC50 was 9.25. With COc1ccc(OC)c2c(C(=O)C(=O)N3CCN(C(=O)c4ccccc4)CC3)c[nH]c12 the EC50 was 0.23 nM and the pEC50 was 9.64. In the case of COc1ccc(C#N)c2[nH]cc(C(=O)C(=O)N3CCN(C(=O)c4ccccc4)CC3)c12, the EC50 is reported as 0.06 nM and the pEC50 is reported as 10.22. O=C(C(=O)N1CCN(C(=O)c2ccccc2)CC1)c1c[nH]c2c(F)cccc12 showed an EC50 of 7.3 nM and a pEC50 of 8.14. Compound Cn1cc(C(=O)C(=O)N2CCN(C(=O)c3ccccc3)CC2)c2ccccc21 has an EC50 of 265 nM and a pEC50 of 6.58. Compound COc1cc2[nH]cc(C(=O)C(=O)N3CCN(C(=O)c4ccccc4)CC3)c2cc1OC has an EC50 of 46500 nM and a pEC50 of 4.33. Work on O=C(C(=O)N1CCN(C(=O)c2ccccc2)CC1)c1c[nH]c2c(Cl)cccc12 yielded an EC50 of 4.4 nM and a pEC50 of 8.36. Work on COc1ccc(F)c2c(C(=O)C(=O)N3CCN(C(=O)c4ccccc4)CC3)c[nH]c12 yielded an EC50 of 0.06 nM and a pEC50 of 10.22. In the case of O=C(C(=O)N1CCN(C(=O)c2ccccc2)CC1)c1c[nH]c2c(Br)cc(F)cc12, the EC50 is reported as 73.1 nM and the pEC50 is reported as 7.14. In the case of COc1cccc2c(C(=O)C(=O)N3CCN(C(=O)c4ccccc4)CC3)c[nH]c12, the EC50 is reported as 6.6 nM and the pEC50 is reported as 8.18. With O=C(C(=O)N1CCN(C(=O)c2ccccc2)CC1)c1c[nH]c2cc(Cl)c(Cl)cc12 the EC50 was 500 nM and the pEC50 was 6.3. O=C(C(=O)N1CCN(C(=O)c2ccccc2)CC1)c1c[nH]c2c(OCC(F)(F)F)ccc(F)c12 showed an EC50 of 0.71 nM and a pEC50 of 9.15. O=C(C(=O)N1CCN(C(=O)c2ccccc2)CC1)c1c[nH]c2cccc(Cl)c12 showed an EC50 of 4.3 nM and a pEC50 of 8.37. In the case of COc1cccc2[nH]cc(C(=O)C(=O)N3CCN(C(=O)c4ccccc4)CC3)c12, the EC50 is reported as 0.52 nM and the pEC50 is reported as 9.28. O=C(C(=O)N1CCN(C(=O)c2ccccc2)CC1)c1c[nH]c2cc(F)ccc12 showed an EC50 of 21.1 nM and a pEC50 of 7.68. O=C(C(=O)N1CCN(C(=O)c2ccccc2)CC1)c1c[nH]c2c(F)ccc(Br)c12 gave an EC50 of 8.2 nM and a pEC50 of 8.09.
